These results are taken from US12582677B2, “Methods for producing retinal tissue and retina-related cell” (SUMITOMO CHEMICAL COMPANY, LIMITED, priority 2011, dated 2026).

One data set deals with Human ES cells (KhES-1). Kind of data set: Production of retinal pigment epithelium from human ES cell aggregates. It counts as cell-based. To be noted: Matrigel and serum steps. The protocol: Human ES cells (KhES-1) were cultured according to the methods described in “Ueno, M. et al. PNAS 2006”, “Watanabe, K. et al. Nat Biotech 2007” and used for the experiment. As the medium, DMEM/F12 medium (Invitrogen) added with 20% KSR (Knockout Serum Replacement; Invitrogen), 0.1 mM 2-mercaptoethanol, 1 mM pyruvic acid, and 5 to 10 ng/ml bFGF was used. For the formation of retinal tissue by floating culture, the ES cells were dispersed into single cells by using 0.25% trypsin-EDTA (Invitrogen), suspended in a serum-free medium (100 μl) to 9×10^3 cells per well of a non-cell adhesive 96-well culture plate (SUMILON spheroid plate, SUMITOMO BAKELITE CO., LTD.) to allow for rapid formation of aggregates, and floating cultured at 37° C., 5% CO2. As the serum-free medium in this case, a serum-free medium obtained by adding 20% KSR, 0.1 mM 2-mercaptoethanol, 1 mM pyruvic acid, 20 μM Y27632 and a substance inhibiting the Wnt signal pathway (3 μM IWR1e) to G-MEM medium was used. Matrigel was added in an amount of 1/100 per volume from day 2 of the floating culture and floating culture was performed. The aggregate was transferred to a serum-free medium without containing a substance inhibiting the Wnt signal pathway on day 12 from the start of the floating culture, fetal calf serum in an amount of 1/10 per volume was added and cultured. […]

Data set [1] concerns RAX::GFP knock-in human ES cells. As to the kind of experiment: Production of optic-cup-like structure from human ES cell aggregates. The format is cell-based. The following applies: 3 μM CHIR99021 and 100 nM SAG together in serum-containing medium from day 15. The protocol: RAX::GFP knock-in human ES cells (derived from KhES-1) were cultured according to the methods described in “Ueno, M. et al. PNAS 2006”, “Watanabe, K. et al. Nat Biotech 2007” and used for the experiment. As the medium, DMEM/F12 medium (Invitrogen) added with 20% KSR (Knockout Serum Replacement; Invitrogen), 0.1 mM 2-mercaptoethanol, 1 mM pyruvic acid, and 5 to 10 ng/ml bFGF was used. For the formation of aggregate by floating culture, the ES cells were dispersed into single cells by using 0.25% trypsin-EDTA (Invitrogen), suspended in a serum-free medium (100 μl) to 9×10^3 cells per well of a non-cell adhesive 96-well culture plate (SUMILON spheroid plate, SUMITOMO BAKELITE CO., LTD.) to allow for rapid formation of aggregates, and floating cultured at 37° C., 5% CO2. As the serum-free medium in this case, a serum-free medium obtained by adding 20% KSR, 0.1 mM 2-mercaptoethanol, 1 mM pyruvic acid, 20 μM Y27632 and a substance inhibiting the Wnt signal pathway (3 μM IWR1e) to G-MEM medium was used. During the floating culture, Matrigel in an amount of 1/100 per volume was added from day 2 from the start of the floating culture. The floating aggregate was transferred to a serum-free medium without a substance inhibiting the Wnt signal pathway on day 12 from the start of the floating culture, fetal calf serum in an amount of 1/10 per volume was added and the aggregate was cultured. […]

Turning to `Cc1c[nH]c(-c2cnc(NCCNc3ccc(C#N)cn3)nc2-c2ccc(Cl)cc2Cl)n1` [CHIR99021], the “retinal pigment epithelium on aggregates (bright-field)” value with Human ES cells (KhES-1) (3 μM CHIR99021 from day 15, after IWR1e) is “emerged on almost all surfaces of the aggregates”. Besides, the “optic-cup-like structure formation on aggregate” value in data set [1] was “a clear optic-cup-like structure was formed”.

As for “Activin A: substance acting on the Activin signal pathway; Recombinant Human/Mouse/Rat Activin A (R&D systems #338-AC)”, the “retinal pigment epithelia on aggregates (bright-field)” value in the data set on Human ES cells (KhES-1) (Activin A 100 ng/ml with 3 μM CHIR99021 from day 15, after IWR1e) is “almost all the surfaces of the aggregates were covered with retinal pigment epithelia”.
